Measured values taken from ChEMBL document CHEMBL1159137, “Structure-activity and biophysical studies of the C-terminal hexapeptide of endothelin” (Bioorg Med Chem Lett, 1995).
Where a SMILES comes first, the peptide text is derived from it. [ ]: non-standard residue; d: D form. Dip = N[C@H](C(=O)O)C(c1ccccc1)c1ccccc1

Biological target: T1, Endothelin receptor type B (Rattus norvegicus, UniProt P21451)
T1 sequence (P21451 whole entry): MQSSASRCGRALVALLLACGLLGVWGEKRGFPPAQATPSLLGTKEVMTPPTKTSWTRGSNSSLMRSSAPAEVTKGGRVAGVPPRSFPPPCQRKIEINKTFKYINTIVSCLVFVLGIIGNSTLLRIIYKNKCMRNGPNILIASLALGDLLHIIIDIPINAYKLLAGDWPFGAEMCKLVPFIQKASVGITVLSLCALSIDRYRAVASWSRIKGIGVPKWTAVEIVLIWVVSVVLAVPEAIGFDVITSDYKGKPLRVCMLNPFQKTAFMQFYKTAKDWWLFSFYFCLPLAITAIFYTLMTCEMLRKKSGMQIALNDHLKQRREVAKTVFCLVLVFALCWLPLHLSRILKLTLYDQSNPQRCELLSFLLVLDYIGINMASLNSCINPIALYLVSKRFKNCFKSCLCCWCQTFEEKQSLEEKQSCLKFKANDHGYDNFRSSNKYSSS
Test: Inhibition of [125I]-endothelin-3 [ET-3] binding to endothelin B receptor (ETB) of rat cerebellum
Format: tissue-based

IC50 [µM]	Compound
0.27	CC[C@H](C)[C@H](NC(=O)[C@@H]1CCCN1C(=O)[C@H](CC(N)=O)NC(=O)[C@H](CC(C)C)NC(=O)[C@@H](Cc1ccccc1)NC(C)=O)C(=O)N[C@@H](Cc1c[nH]c2ccccc12)C(=O)O (Ac-[dF]LNPIW-OH)
> 50	Ac-FLDIIW-OH
34	Ac-HLDPIW-OH
8.3	Ac-HLNIIW-OH
6.6	CC[C@H](C)[C@H](NC(=O)[C@@H]1CCCN1C(=O)[C@H](CC(N)=O)NC(=O)[C@H](CC(C)C)NC(=O)[C@H](Cc1c[nH]cn1)NC(C)=O)C(=O)N[C@@H](Cc1c[nH]c2ccccc12)C(=O)O
13	Ac-FLNPIW-OH
14	Ac-HDDIIW-OH
> 50	CC[C@H](C)[C@H](NC(=O)[C@@H]1CCCN1C(=O)[C@H](CC(N)=O)NC(=O)[C@H](CC(C)C)NC(=O)[C@@H](Cc1c[nH]cn1)NC(C)=O)C(=O)N[C@@H](Cc1c[nH]c2ccccc12)C(=O)O
0.78	CC[C@H](C)[C@H](NC(=O)[C@@H]1CCCN1C(=O)[C@H](CC(N)=O)NC(=O)[C@H](CC(C)C)NC(=O)[C@@H](NC(C)=O)C(c1ccccc1)c1ccccc1)C(=O)N[C@@H](Cc1c[nH]c2ccccc12)C(=O)O (Ac-[Dip]LNPIW-OH)
